Results as given in the NIST ThermoML archive (doi:10.1021/acs.jced.5b00989).
± gives the expanded uncertainty stated by the source.

Test: molar heat capacity at constant pressure; xn = mol fraction of the nth substance listed
Details: 100 kPa, Liquid, Small sample (50 mg) DSC, x2 = 0.33

OCCOCCOCCO [triethylene glycol] + C[N+](C)(C)CCO.[Cl-]
molar heat capacity at constant pressure (298.15 K): 299 ± 7.3 J/K/mol
molar heat capacity at constant pressure (300.65 K): 300.3 ± 7.4 J/K/mol
molar heat capacity at constant pressure (303.15 K): 301.5 ± 7.4 J/K/mol
molar heat capacity at constant pressure (305.65 K): 302.8 ± 7.4 J/K/mol
molar heat capacity at constant pressure (308.15 K): 303.7 ± 7.4 J/K/mol
molar heat capacity at constant pressure (310.65 K): 304.5 ± 7.5 J/K/mol
molar heat capacity at constant pressure (313.15 K): 304.7 ± 7.5 J/K/mol
molar heat capacity at constant pressure (315.65 K): 304.6 ± 7.5 J/K/mol
molar heat capacity at constant pressure (318.15 K): 304.6 ± 7.5 J/K/mol
molar heat capacity at constant pressure (320.65 K): 304.3 ± 7.5 J/K/mol
molar heat capacity at constant pressure (323.15 K): 304.3 ± 7.5 J/K/mol
molar heat capacity at constant pressure (325.65 K): 304.9 ± 7.5 J/K/mol
molar heat capacity at constant pressure (328.15 K): 305.8 ± 7.5 J/K/mol
molar heat capacity at constant pressure (330.65 K): 306.7 ± 7.5 J/K/mol
molar heat capacity at constant pressure (333.15 K): 307.4 ± 7.5 J/K/mol
molar heat capacity at constant pressure (335.65 K): 308.6 ± 7.6 J/K/mol
molar heat capacity at constant pressure (338.15 K): 309.4 ± 7.6 J/K/mol
molar heat capacity at constant pressure (340.65 K): 309.9 ± 7.6 J/K/mol
molar heat capacity at constant pressure (343.15 K): 310 ± 7.6 J/K/mol
molar heat capacity at constant pressure (345.65 K): 311.8 ± 7.6 J/K/mol
molar heat capacity at constant pressure (348.15 K): 312.2 ± 7.6 J/K/mol
molar heat capacity at constant pressure (350.65 K): 312.4 ± 7.7 J/K/mol
molar heat capacity at constant pressure (353.15 K): 314.6 ± 7.7 J/K/mol
